Our source for the Change in gastric pressure-wave amplitude, change in vivo and LD50 values is patent publication US4279905A, “1-Benzoxepin-5 (2H)-one derivatives and pharmaceutical compositions” (Kali-Chemie Pharma GmbH, priority 1979, dated 1981).

One data set deals with gastric peristalsis. The data set is described as follows: Testing of the gastric peristalsis (gastric pressure, barium chloride-stimulated stomach of narcotized rats). Format: in vivo. The settings on record: 20 mg/kg intraperitoneally, BaCl2 50 mg/kg/h i.v. infusion, compared with control value before compound; for Change in gastric pressure-wave amplitude: the values are: decrease in gastric amplitude; for change in vivo at 20 mg/kg: Rattus norvegicus, ip, read-out: Frequency Decrease in %. From the text:
To determine the functioning of the gastric peristalsis, rats weighing about 200 g are narcotized by means of ketamine hydrochloride and xylazine. A catheter is introduced into the Vena jugularis of the narcotized rats and a tracheal catheter into the trachea. A stomach probe is inserted into their stomach and tied thereto. The probe is connected via a three-way cock with a Statham pressure imparting device (P 23 DB). The stomach is sealed off by a ligature at the pylorus and at the cardia. The stomach is filled with 3 ml of a 0.9% aqueous sodium chloride solution. The pressure waves produced by the stomach are continuously registered by a suitable recording device such by a Watanabe Multicorder (MC 641).
In conducting the test, a control value is obtained by inducing a stimulation of the stomach through a lengthy intravenous infusion of 50 mg/kg/h of bariumchloride and the amplitude and frequency of resultant pressure waves are measured. Subsequently, in order to determine the pharmacological effects, the compounds to be tested are dissolved in physiological sodium chloride solution or are suspended in Tylose MH 50 solution. The solutions or suspensions are then administered intraperitoneally to the rats in a dose of 20 mg/kg. The amplitudes and frequencies of the pressure wave-like movements of the stomach as they occur with the test solution and after administration of the compound to be tested, are compared.

The nature of data set [1]: Determination of acute toxicity (seven-day, single intraperitoneal dose). The settings on record: in vivo, ip, fasting white NMRI mouse, single dose i.p., probit analysis, read-out: LP50 i.p. How it is done:
The acute seven-day toxicity is determined by intraperitoneal administration of a single dose of the respective compound to a fasting white NMRI mouse. The LD50 -values are calculated via electronic data processing by a probit analysis as described in the book "Grundbegriffe der Biometrie" (Basic Biometrical Definitions) by L. Cavalli-Sforza, page 153 et seq., published by Gustav Fischer Verlag, Stuttgart, 1964.

For `CNC1=CC(=O)c2ccccc2OC1` [A, 3-methylamino-1-benzoxepin-5(2H)-one], in the data set with gastric peristalsis, the Change in gastric pressure-wave amplitude is 56% and the change in vivo at 20 mg/kg is -18%. Moreover, in data set [1], the LD50 at 168 h was 664 mg/kg.
Taken in the same sequence, the figures for `CNC1=CC(=O)c2ccc(Cl)cc2OC1` [B, 3-methylamino-8-chloro-1-benzoxepin-5(2H)-one] were 58%, -16% and 450 mg/kg.
Take `CC(C)NC1=CC(=O)c2ccccc2OC1` [C, 3-isopropylamino-1-benzoxepin-5(2H)-one]: in the data set with gastric peristalsis, the Change in gastric pressure-wave amplitude turned out to be 32% and the change in vivo at 20 mg/kg is -2%. The LD50 at 168 h in data set [1] is 544 mg/kg.
For `O=C1C=C(NCCc2ccccc2)COc2ccccc21` [Compound F, 3-phenethylamino-1-benzoxepin-5(2H)-one], in the data set on gastric peristalsis, the Change in gastric pressure-wave amplitude came to 29% and the change in vivo at 20 mg/kg was -7%.
As to `NC1=CC(=O)c2ccccc2OC1` [D, 3-amino-1-benzoxepin-5(2H)-one], in the data set on gastric peristalsis, the Change in gastric pressure-wave amplitude was 45% and the change in vivo at 20 mg/kg is -12%. Also, the LD50 at 168 h in data set [1] is 544 mg/kg.
As to `CCCCNC1=CC(=O)c2ccccc2OC1` [E, 3-(n-butylamino)-1-benzoxepin-5(2H)-one], in the data set on gastric peristalsis, the Change in gastric pressure-wave amplitude amounted to 26% and the change in vivo at 20 mg/kg is 36%. Besides, the LD50 at 168 h in data set [1] was determined as 442 mg/kg.
In the case of `O=C1C=C(N2CCN(Cc3ccccc3)CC2)COc2ccccc21` [G, 3-(N-benzylpiperazino)-1-benzoxepin-5(2H)-one], in the data set with gastric peristalsis, the Change in gastric pressure-wave amplitude worked out at 31% and the change in vivo at 20 mg/kg amounted to 10%. The LD50 at 168 h in data set [1] was 634 mg/kg.
Taken in the same sequence, the figures for `O=C1C=C(N2CCOCC2)COc2ccccc21` [H, 3-morpholino-1-benzoxepin-5(2H)-one] were 12%, 17% and 650 mg/kg.
In the case of `COCCNC1=CC(=O)c2ccccc2OC1` [I, 3-(β-methoxyethylamino)-1-benzoxepin-5(2H)-one], in the data set with gastric peristalsis, the Change in gastric pressure-wave amplitude turned out to be 46% and the change in vivo at 20 mg/kg is 11%.
In the case of `CNC1=CC(=O)c2ccc(C)cc2OC1` [K, 3-methylamino-8-methyl-1-benzoxepin-5(2H)-one], in the data set on gastric peristalsis, the Change in gastric pressure-wave amplitude turned out to be 55% and the change in vivo at 20 mg/kg was 4%.
Taken in the same sequence, the figures for `CNC1=CC(=O)c2cc(C)ccc2OC1` [L, 3-methylamino-7-methyl-1-benzoxepin-5(2H)-one] were 75% and 15%.
As for `CNC1=CC(=O)c2ccc(C(C)(C)C)cc2OC1` [M, 3-methylamino-8-tert.-butyl-1-benzoxepin-5(2H)-one], in the data set on gastric peristalsis, the Change in gastric pressure-wave amplitude was found to be 72% and the change in vivo at 20 mg/kg was found to be 10%.
As to `CNC1=CC(=O)c2cc(Cl)ccc2OC1` [N, 3-methylamino-7-chloro-1-benzoxepin-5(2H)-one], in the data set on gastric peristalsis, the Change in gastric pressure-wave amplitude came to 46% and the change in vivo at 20 mg/kg was -1%.
On to `CNC1=CC(=O)c2cc(F)ccc2OC1` [O, 3-methylamino-7-fluoro-1-benzoxepin-5(2H)-one], for which, in the data set with gastric peristalsis, the Change in gastric pressure-wave amplitude is 37% and the change in vivo at 20 mg/kg stood at 1%.
